We go through 15 compounds from patent US10344046B2, “Nucleotide and oligonucleotide prodrugs” (priority 2005, dated 2019).

Structures are written as SMILES. Entries after “also recorded” stand apart in the source; their conditions may differ. Like-named read-outs stand apart in the source and are kept apart here.

The nature of series [1]: Metabolism in vitro with human liver microsomes. It counts as in vitro ADME. The source says: (§1) This would support the hypothesis that the antiviral activity of 3-dApsU2′-OMe and other di-, and tri-nucleotides is due to the intact nucleotide structure and not due to its metabolites. This is in contrast to traditional antiviral nucleosides, which require metabolic activation and conversion to triphosphate derivatives for their action.
(§2) This is in contrast to traditional antiviral nucleosides, which require metabolic activation and conversion to triphosphate derivatives for their action.
In general terms: Liver microsomes are vesicles of endoplasmic reticulum, rich in cytochrome P450 enzymes.

The format of series [2] is in vitro ADME. The text has this:
However, the challenge in the case of nucleotides and dinucleotides is that they contain highly acid-labile purine and pyrimidine moieties in their structures. Thus, although masking the negative charge of these molecules might aid in their cellular diffusion by increased lipohilicity, it is not known whether they will be stable in gastric mucosa long enough to be absorbed orally. […] Such degradative process is known to occur by initial protonation of nitrogen of the nucleobase followed by depurination and cleavage of the sugar ring.
(§3) The stability of prodrugs in simulated gastric fluid (SGF) and simulated intestine fluid (SIF) at 37° C. were examined. SGF and SIF were prepared following reported procedures and prodrugs were incubated separately with SGF and SIF for 1 h at 37° C., processed, and analyzed using reverse-phase HPLC.

In a further series the test system is HBV. The settings on record: Iyer et al., Antimicrob. Agents and Chemotherapy, 48, 2318-2320, 2004; cited from earlier work.
Series [3] is described as follows: Metabolism in vitro with mouse liver microsomes. It counts as in vitro ADME.
Description: as §1

Series [4] in a line: Pharmacokinetic study in woodchuck, intravenous. Format: in vivo.
Description: as §2

The nature of series [5]: Stability in simulated intestine fluid (SIF). It counts as in vitro ADME. The settings on record: 1 h at 37° C. Here is the method: as §3
Another series concerns HFF. The experiment in a line: Cytotoxicity assay, HFF cell line. Here is the method:
(§4) We next examined the cytotoxicity profile of the pronucleotide derivatives in different cell lines such as MDBK, Vero, and HFF.
(§5) Standard MTF assays were performed in 96-well plates using the Promega CellTiter96 Non-radioactive Cell Proliferation Assay Kit in conjunction with a 96-well Plate Reader (ThermoMax, Molecular devices), and using MDBK, Vero, and TIFF cell lines (obtained from ATCC). Several controls were employed including the nucleoside analogs 3TC, AZT, and ddC, as well as, media without drugs. SDS was used as a positive cytotoxic control. All pronucleotides were tested in triplicate at concentrations of 100, 300, and 1000 μM. Following a 24-hour incubation of cells with the test substance, the MTF assay was carried out.

Another series concerns Vero. The experiment in a line: Cytotoxicity assay, Vero cell line. Here is the method: as §4, §5
Another series deals with bovine chymotrypsin (Bos taurus, UniProt P00766).
Series [6] can be described thus: Bioreversibility (hydrolytic conversion to parent dinucleotide 5) in rabbit serum, HPLC. The settings on record: for t1/2 (min) in serum: rabbit; for time for almost complete conversion to 3′dApsU2′-OMe on serum treatment: rabbit serum, 37° C. Here is the method:
(§6) Evaluation of bioreversibility of the pronucleotides was carried out in rabbit serum in phosphate buffer at 37° C. In order to monitor the hydrolytic conversion of the pronucleotides to the dinucleotide 5, aliquots of incubate were removed at different time points, processed, and analyzed using reversed-phase HPLC.
Bioreversibility studies were carried out as follows: A stock solution of each analog was prepared by dissolving 2 mg in 100 μL of DMSO. 10 μL aliquots were diluted with 90 μL of phosphate buffer (0.1 M, pH 7.0) and 100 μL aliquots of rabbit serum. The mixture was incubated at 37° C. in a water bath. Aliquots were removed at different time points and diluted with 200 μL of methanol to stop the reaction. The incubate was then centrifuged, supernatant concentrated in a speed vac and diluted with 200 μL of 0.1 M ammonium acetate buffer prior to injection into HPLC. Reversed-phase HPLC analysis was carried out using a Waters Instrument equipped with a 600Egradient controller, and a 996 photodiode array detector with Millennium software. X-terra MS C18 2.5 μm, 2.1×20 mm column and an operating gradient of 100% A to 80% B over 30 minutes of buffer A (0.1 M NH4OAc) and buffer B (80:20, CH3CN:NH4OAc) was employed. Retention time for prodrugs ranged from 16 to 18 minutes whereas that of the Rp,Sp dinucleotide 5 was 13.5, 13.8 minutes.

A further series has as its system pig liver esterase (PLE). Here is the method: as §6
The conditions of series [7]: pH 7.2. Here is the method:
as §6

A further series relates to MDBK. The experiment in a line: Cytotoxicity assay, MDBK cell line. Here is the method: as §4, §5
In the next series the test system is human hepatitis B virus. It counts as in vivo, transgenic mice.
The nature of series [8]: Weight change and apparent toxicity in the HBV transgenic mouse study. Here is the method:
Male and female transgenic mice (founder 1.3.32) were infected with human hepatitis B virus. […] The positive control, ADV, was administered at 10 mg/kg/d. Statistical significance is indicated as *P≤0.05, **P≤0.01, ***P≤0.001 compared to placebo vehicle. Measurements of serum HBeAg, PEI are reported according to International Immuno Diagnostics standardized assay using Paul Ehrlich International Units (PEI U).

[9] abbreviates: oral once daily for 14 days, 6a 400, 6k 300, ADV 10 mg/kg/d.

What is called CC50 is the concentration giving 50% cytotoxicity.

With `COC1C(OP(=O)([S-])OCC2OC(n3cnc4c(N)ncnc43)CC2O)C(CO)OC1n1ccc(=O)[nH]c1=O.[Na+]` (mixture of isomers) [3-dApsU2′-OMe], the “significant metabolism in vitro” value in series [1] is “do not occur; also recorded: absence of significant metabolism”; in series [3], “do not occur”. In addition, the “time of decomposing in SGF” value in [2] (SGF, 37° C.) was “about 15 min”. Further, in series [2] (simulated gastric fluid), the “half-life in simulated gastric fluid” value is “less than 10 minutes”. Besides, the “anti-HBV activity in the transgenic mouse model” value in the series on HBV is reported as “excellent anti-HBV activity”. The “elimination in the urine” value in series [4] (IV) is given as “mostly intact material”. Besides, the plasma half-life result in series [4] (intravenous (IV) administration) was “about 1 h”. Further, in series [5], the “stability in SIF” value was “relatively stable”.
With `COC1C(OP(=O)(OCC2OC(n3cnc4c(N)ncnc43)CC2O)SCc2ccc(OC(=O)C(C)C)cc2)C(CO)OC1n1ccc(=O)[nH]c1=O` (mixture of isomers) [Compound 6b], the CC50 in the series with HFF, with Vero and in the series on MDBK was > 1000 µM throughout. Also, the “hydrolytic action of bovine chymotrypsin” value on bovine chymotrypsin is “resistant”. In series [6], the “time for complete conversion to the parent 5” value is given as ~3 h. Besides, in the series with pig liver esterase (PLE), the “hydrolytic action of pig liver esterase (PLE)” value is “resistant”. Further, the “time stable in phosphate buffer” value in [7] is given as “up to 24 h”.
In the case of `COC1C(OP(=O)(OCC2OC(n3cnc4c(N)ncnc43)CC2O)SCc2ccc(NC(C)=O)cc2)C(CO)OC1n1ccc(=O)[nH]c1=O` (mixture of isomers) [Compound 6d], the CC50 with HFF, in the series on Vero and in the series on MDBK was > 1000 µM in each case.
Consider `COC1C(OP(=O)(OCC2OC(n3cnc4c(N)ncnc43)CC2O)SCCCCOC(C)=O)C(CO)OC1n1ccc(=O)[nH]c1=O` (mixture of isomers) [Compound 6e], for which the CC50 in the series on Vero (read-out: CC50(μM) Vero, Table 4, 24-hour incubation) was > 1000 µM; in the series on MDBK (read-out: CC50(μM) MDBK, Table 4, 24-hour incubation) it was > 1000 µM. For the same compound, the “t1/2 (min) in serum” value in series [6] is reported as >60^@ min.
For `COC1C(OP(=O)(OCC2OC(n3cnc4c(N)ncnc43)CC2O)SCCCCOC(=O)c2ccccc2)C(CO)OC1n1ccc(=O)[nH]c1=O` (mixture of isomers) [Compound 6f], the CC50 in the series with Vero and with MDBK was > 1000 µM in each case. Further, in [6], the “t1/2 (min) in serum” value is listed as >120^@ min.
Take `COC1C(OP(=O)(OCC2OC(n3cnc4c(N)ncnc43)CC2O)SCCCCOC(=O)c2cccnc2)C(CO)OC1n1ccc(=O)[nH]c1=O` (mixture of isomers) [Compound 6g]: the CC50 in the series on HFF, with Vero and with MDBK was > 1000 µM throughout. Also, the “t1/2 (min) in serum” value in series [6] is on record as >120^@ min.
Regarding `COC1C(OP(=O)(OCC2OC(n3cnc4c(N)ncnc43)CC2O)SCCCCNC(=O)c2ccccc2)C(CO)OC1n1ccc(=O)[nH]c1=O` (mixture of isomers) [Compound 6i], the half-maximal cytotoxic concentration (CC50) with Vero and in the series on MDBK was > 1000 µM each time.
For `COC1C(OP(=O)(OCC2OC(n3cnc4c(N)ncnc43)CC2O)SCCCCNC(=O)c2cccnc2)C(CO)OC1n1ccc(=O)[nH]c1=O` (mixture of isomers) [Compound 6j], the CC50 in the series on HFF, with Vero and with MDBK was > 1000 µM throughout.
Consider `COC1C(OP(=O)(OCC2OC(n3cnc4c(N)ncnc43)CC2O)SCOC(=O)OCC(C)C)C(CO)OC1n1ccc(=O)[nH]c1=O` (mixture of isomers) [Compound 6s], for which the “Cytotoxicity assay (um) HFF” value with HFF is listed as >1000 um. For the same compound, the “Cytotoxicity assay (um) Vero” value in the series on Vero is >1000 um. Also, the “Cytotoxicity assay (um) MDBK” value in the series with MDBK was >1000 um.
On to `COC1C(OP(=O)(OCC2OC(n3cnc4c(N)ncnc43)CC2O)SCOC(=O)OC(C)(C)C)C(CO)OC1n1ccc(=O)[nH]c1=O` (mixture of isomers) [Compound 6t], for which the “Cytotoxicity assay (um) HFF” value in the series on HFF is listed as >1000 um. Also, the “Cytotoxicity assay (um) Vero” value in the series on Vero is on record as >1000 um. In addition, the “Cytotoxicity assay (um) MDBK” value in the series on MDBK was >1000 um.
Regarding `CCCCOCCOC(=O)OCSP(=O)(OCC1OC(n2cnc3c(N)ncnc32)CC1O)OC1C(CO)OC(n2ccc(=O)[nH]c2=O)C1OC` (mixture of isomers) [Compound 6u], in the series with HFF, the “Cytotoxicity assay (um) HFF” value is given as >1000 um. Besides, the “Cytotoxicity assay (um) Vero” value in the series with Vero is >1000 um. Also, the “Cytotoxicity assay (um) MDBK” value with MDBK was >300 um.
In the case of `CC(C)(C)C(=O)OCOP(=O)(COCCn1cnc2c(N)ncnc21)OCOC(=O)C(C)(C)C` [ADV, adefovir dipivoxil, reference compound], in the series with human hepatitis B virus (mouse, in vivo), the “Liver HBV RNA (log transcripts ± sd)” value was found to be 10.5 ± 0.4 log transcripts; the “QPCR Liver HBV DNA (pg/μg mean ± sd)” value came to 1.7 ± 1.1 pg/µg; the “Serum HBeAg, PEI U/mL (mean ± sd)” value is recorded as 59 ± 9.7 PEI U/mL; the “Serum HBsAg (signal/cutoff units ± sd)” value is 73 ± 52 signal/cutoff units. In the series on human hepatitis B virus (mouse, in vivo), the “Southern blot Liver HBV DNA (pg/μg mean ± sd)” value was determined as 0.9 ± 1.1 pg/µg.
For `CO[C@H]1C(OP(=O)(OC[C@H]2O[C@@H](n3cnc4c(N)ncnc43)CC2O)SCOC(=O)OC(C)C)[C@@H](CO)O[C@H]1n1ccc(=O)[nH]c1=O` (some centres unmarked) [Compound 6k, S-isopropylcarbonyloxymethyl Thiophosphate Derivative 6k of 3′dApsU2′OMe], in the series on HFF (Table 5, 24-hour incubation), the “Cytotoxicity assay (um) HFF” value was >1000 um. Moreover, in the series with human hepatitis B virus (setting [9]), the “Liver HBV RNA (log transcripts ± sd)” value amounted to 10.8 ± 0.4 log transcripts; the “QPCR Liver HBV DNA (pg/μg mean ± sd)” value was 13.3 ± 12 pg/µg; the “Serum HBeAg, PEI U/mL (mean ± sd)” value worked out at 67 ± 0.6 PEI U/mL; the “Serum HBsAg (signal/cutoff units ± sd)” value stood at 55 ± 59 signal/cutoff units. In the series with human hepatitis B virus (setting [9]), the “Southern blot Liver HBV DNA (pg/μg mean ± sd)” value came out at 5.7 ± 3.2 pg/µg. Besides, in the series on Vero (Table 5, 24-hour incubation), the “Cytotoxicity assay (um) Vero” value was >1000 um. For the same compound, the “time for almost complete conversion to 3′dApsU2′-OMe on serum treatment” value in [6] is given as ~3 h. In addition, the “apparent toxicity at the high doses employed” value in series [8] (400 mg/kg/d (6a), 300 mg/kg/d (6k), oral, 14 days) is “no apparent toxicity”. The “% weight change ± sd” value in [8] (setting [9]) came out at 4.3 ± 1.8%. Moreover, in the series on MDBK (Table 5, 24-hour incubation), the “Cytotoxicity assay (um) MDBK” value was >1000 um.
With `CO[C@H]1C(OP(=O)(OC[C@H]2O[C@@H](n3cnc4c(N)ncnc43)CC2O)SCOC(=O)CCC(C)C2CCC3C4CCC5CC(O)CCC5(C)C4CC(O)C23C)[C@@H](CO)O[C@H]1n1ccc(=O)[nH]c1=O` (some centres unmarked) [Compound 6l], the “Cytotoxicity assay (um) HFF” value in the series with HFF (Table 5, 24-hour incubation) is recorded as >1000 um. Moreover, the “Cytotoxicity assay (um) Vero” value in the series with Vero (Table 5, 24-hour incubation) is given as >1000 um. Also, in the series with MDBK (Table 5, 24-hour incubation), the “Cytotoxicity assay (um) MDBK” value is recorded as >1000 um.
On to `CO[C@H]1C(OP(=O)(OC[C@H]2O[C@@H](n3cnc4c(N)ncnc43)CC2O)SCOC(=O)C(Cc2ccccc2)NC(=O)OC(C)(C)C)[C@@H](CO)O[C@H]1n1ccc(=O)[nH]c1=O` (stereo partly drawn) [Compound 6m, N-(t-butoxycarbonyl)-L-phenylalaninate Analog 6m of 3′dApsU2′OMe], for which, in the series with HFF (Table 5, 24-hour incubation), the “Cytotoxicity assay (um) HFF” value was >1000 um. The “Cytotoxicity assay (um) Vero” value in the series with Vero (Table 5, 24-hour incubation) is listed as >1000 um. The “time for almost complete conversion to 3′dApsU2′-OMe on serum treatment” value in [6] was ~3 h. For the same compound, the “Cytotoxicity assay (um) MDBK” value in the series on MDBK (Table 5, 24-hour incubation) is reported as >1000 um.
